Data: US10821079B2, “PKC activators and combinations thereof” (Cognitive Research Enterprises, Inc., priority 2011, dated 2020)

What was measured:
PKC-ε [1] = assay: PKC-ε mRNA by RT-PCR in RA / Bryostatin-1 treated cells; assay type: cell-based, human
Procedure: RNA was isolated from the cells using Trizol reagent (Invitrogen, USA) following the manufacturer's protocol. Briefly, 5 μg of total RNA was reverse transcribed using oligo (dT) and Superscript III (Invitrogen, USA) at 50° C. for 1 hr. Two μl of the cDNA product was amplified using primers for PKC-ε (Forward Primer—[…], Reverse primer—[…]), and β-tubulin (Forward Primer—[…], Reverse primer—[…]) (Origene, Rockville, Md.) for 25 cycles following standard PCR protocols and 55° C. annealing temperature. The PCR amplicons were analyzed in an E-Gel (Invitrogen, USA). The gel image was documented using a Fuji Image gel scanner (FLA-9000, Fuji Film) and densitometric quantification was performed using the IMAL software (Blanchette Rockefeller Neurosciences Institute, Morgantown, W. Va.). Data were represented as normalized ratio of PKC-ε OD (Optical Density) against β-tubulin OD for three independent experiments.

PKC-α-RACK1 = target: T1, PKC-α-RACK1 (Homo sapiens, UniProt P17252); assay type: cell-based
T1 construct: host or cells: SH-SY5Y neuroblastoma cells
Procedure: (§1) Cells were grown in two chambered slides (Nunc, USA) at low density. For immunofluorescence staining, the cells were washed with PBS (pH 7.4) and fixed with 4% paraformaldehyde for 4 min. Following fixation, the cells were blocked and permeabilized with 5% serum and 0.3% Triton X 100 in 1×PBS for 30 min. The cells were washed three times with 1×PBS and incubated with primary antibodies for 1 hr at 1:100 dilution. The incubation slides were then washed again three times in 1×PBS and were incubated with the FITC anti-rabbit IgG and Rhodamine anti-mouse IgG for 1 hr at 1:400 dilution. The cells were further washed and treated with DAPI (4′,6-diamidino-2′-phenylindole, dihydrochloride) (Thermo Scientific, USA) to stain the nucleus. Finally, the slides were washed and mounted in Pro Long Gold antifade mounting solution (Invitrogen, USA) and were viewed under the LSM 710 Meta confocal microscope (Zeiss) at 350 nm, 490 nm, and 540 nm excitation and 470 nm, 525 nm, and 625 nm emission for DAPI, FITC, and Rhodamine respectively. Six individual fields at 63× oil lens magnification were analyzed for the mean fluorescence intensity (MFI) in each channel. The co-localization correlation generated by the ZEN software (Zeiss).
Coimmunoprecipitation was done following protocol described Besson et al. with slight modification. See Besson et al. (2002) J Biol Chem 277, 22073-22084. […]

PKC-ε [2] = assay: PKC-ε translocation to membrane in SH-SY5Y cells (Western blot); assay type: cell-based, human
Procedure: Cells were harvested in homogenizing buffer containing 10 mM Tris-Cl (pH 7.4), 1 mM PMSF (phenylmethylsulfonyl fluoride), 1 mM EGTA, 1 mM EDTA, 50 mM NaF, and 20 μM leupeptin and were lysed by sonication. The homogenate was centrifuged at 100,000×g for 15 min at 4° C. to obtain the cytosolic fraction (supernatant) and membrane (pellet). The pellet was resuspended in the homogenizing buffer by sonication. Protein concentration was measured using the Coomassie Plus (Bradford) Protein Assay kit (Pierce, USA). Following quantification, 20 μg of protein from each sample was subjected to SDS-PAGE analysis in 4-20% gradient Tris-Glycine gel (Invitrogen, USA). The separated protein was then transferred to nitrocellulose membrane. The membrane was blocked with BSA at room temperature for 15 min and was incubated with primary antibody over night at 4° C. After the incubation, it was washed three times with TBS-T (Tris Buffered saline-Tween 20) and further incubated with alkaline phosphatase conjugated secondary antibody (Jackson Immunoresearch Laboratories, USA) at 1:10,000 dilution for 45 min. The membrane was finally washed three times with TBS-T and developed using the 1-step NBT-BCIP substrate (Pierce, USA). Western Blot was imaged in the ImageQuant RT-ECL (GE Life Sciences, Piscataway, N.J.) and densitometric quantification was performed using the IMAL software (Blanchette Rockefeller Neurosciences Institute, Morgantown, W. Va.). For translocation assays, PKC activation was represented as the percentage of total protein in the membrane (membrane/cytosol+membrane).
Equal amounts of proteins were loaded in each lane (20 μg) for both the cytosol and membrane fractions. Activation of PKC was calculated as the percentage of total PKC in the membrane (membrane/cytosol+membrane).

[3] = test system: phosphatidylserine (C2) binding site; assay: 3H-DCPLA-ME binding to rat brain slices with competitors, film autoradiography
Procedure: To determine the binding site of DCPLA-ME, ^3H-DCPLA-ME was incubated with rat brain slices in the absence and presence of known C1 and C2 competitors. More specifically, rat brain sections were fixed with formaldehyde, sliced, and incubated with (1) ^3H-DCPLA-ME alone; (2) ^3H-DCPLA-ME with DCPLA; (3) ^3H-DCPLA-ME with Phorbol ester; or (4) ^3H-DCPLA-ME and Bryostatin 1. After incubation, the slices were washed with a buffer made of 130 mM NaCl, 5 mM MgCl, 5 mM KCl, 1 mM EGTA, and 0.1% bovine serum albumin in 10 mM HEPES-NaOH, pH 7.4, dried, and analyzed with film-autoradiography.

[4] = test system: rat hippocampal primary neurons; assay: Synaptic marker immunofluorescence in rat hippocampal primary neurons; assay type: cell-based; conditions: 50 nM ASPD alone (ASPD) or with 100 nM DCPLA-ME, 20 hr
Procedure: as §1
To estimate the synaptic damage caused by the ASPDs on primary hippocampal neurons, the expression of synaptophysin (a presynaptic marker) and PSD-95 (a postsynaptic marker) was measured by immunofluorescence staining. […] Following a 20 hr incubation period, the cells were stained for nucleus, PSD-95, and synaptophysin. Expression levels were calculated as the change of percentage in mean fluorescence intensity compared to untreated cells.
Primary neurons, treated and untreated, were immunostained for MAP-2, synaptophysin, and PSD-95 to determine the synaptic integrity. […] Following a 20 hr incubation period, the cells were stained for MAP-2, PSD-95, and synaptophysin as described above.

SMILES | increase of mRNA level of PKC-ε (PKC-ε [1]) [fold] | PKC-α-RACK1 interaction by RACK1 immunoprecipitation (in words) (PKC-α-RACK1) | colocalization correlation R (PKC-α-RACK1) | PKC-ε translocation over time (in words) (PKC-ε [2]; 0.27 nM, 0-60 min) | 3H-DCPLA-ME binding, 30 nM competitor [3] [%] | 3H-DCPLA-ME binding, 1 μM competitor [3] [%] | MAP-2 expression (mean fluorescence intensity) [4] [%] | PSD-95 expression (mean fluorescence intensity) [4] [%] | synaptophysin expression (mean fluorescence intensity) [4] [%] | PKC-ε translocation (in words) (PKC-ε [2]; Aβ1-42 monomers 1 μM, DCPLA-ME added to ASPD-treated cells)
CCC/C=C/C=C/C(=O)O[C@H]1/C(=C/C(=O)OC)C[C@H]2C[C@H]([C@@H](C)O)OC(=O)C[C@H](O)C[C@@H]3C[C@H](OC(C)=O)C(C)(C)C(O)(C[C@@H]4C/C(=C/C(=O)OC)C[C@H](/C=C/C(C)(C)[C@]1(O)O2)O4)O3 [Bryostatin-1] | 2 | increased at 15 min but decreased below the control level at 30 min | 0.58 | remained activated at 60 min | 100 | 77 |  |  |  | 
CCCCCC1CC1CC1CC1CCCCCCCC(=O)OC (stereo not shown) [DCPLA-ME, methyl 8-(2-((2-pentylcyclopropyl)methyl)cyclopropyl)octanoate] |  |  |  |  | 64 | 37 | 68.87±2.0 | 99.2±11.3 | 87.48±3.75 | restored PKC-ε translocation to normal
CC1=C(/C=C/C(C)=C/C=C/C(C)=C/C(=O)O)C(C)(C)CCC1 [RA, All-trans retinoic acid] | 2 |  |  |  |  |  |  |  |  | 
